In BindingDB's records for doi:10.1021/jm00088a013 (University of Kansas, 1992):

Each compound was assayed against Adenosylhomocysteinase (Bos taurus) (assay: Inhibitory activity against bovine liver S-adenosyl-L-homocysteine hydrolase (AdoHcy) rate of inactivation by NpcA).

Row | Compound | Ki
1 | Nc1ncnc2c1ncn2[C@@H]1C[C@H](c2ccccc2)[C@@H](O)[C@H]1O | 67600 nM
2 | CC1=C[C@@H](n2cnc3c(N)ncnc32)[C@H](O)[C@@H]1O | 9150 nM
3 | CC[C@H]1C[C@@H](n2cnc3c(N)ncnc32)[C@H](O)[C@@H]1O | 586 nM
4 | C=C[C@H]1C[C@@H](n2cnc3c(N)ncnc32)[C@H](O)[C@@H]1O | 22 nM

The remaining lines, values ahead:

Row | Ki | Compound
5 | 49 nM | Nc1ncnc2c1ncn2[C@@H]1C=C[C@@H](O)[C@H]1O
6 | 27 nM | C[C@H]1C[C@@H](n2cnc3c(N)ncnc32)[C@H](O)[C@@H]1O
7 | 12 nM | Nc1ncnc2c1ncn2[C@@H]1CC[C@@H](O)[C@H]1O [(1R,2S,3R)-3-(6-amino-9H-purin-9-yl)cyclopentane-1,2-diol]
8 | 5020 nM | C[C@@H]1C[C@@H](n2cnc3c(N)ncnc32)[C@H](O)[C@@H]1O
